Article PMC7178833, “Preparation, carbonic anhydrase enzyme inhibition and antioxidant activity of novel 7-amino-3,4-dihydroquinolin-2(1H)-one derivatives incorporating mono or dipeptide moiety” (Journal of Enzyme Inhibition and Medicinal Chemistry, 2020)

Experiments:
[1] = biological target: hCA I (Homo sapiens, UniProt P00915); experiment: stopped flow CO2 hydrase assay, hCA I; format: biochemical; settings: mean from three different assays
Method: (§1) An Applied Photophysics Stopped-Flow instrument has been used for assaying the CA catalysed CO2 hydration activity by using method of Khalifah[21]. Phenol red (at a concentration of 0.2 mM) has been used as indicator, working at the absorbance maximum of 557 nm, with 20 mM HEPES (pH 7.5) as buffer and 20 mM Na2SO4 (for maintaining constant the ionic strength), following the initial rates of the CA-catalysed CO2 hydration reaction for a period of 10–100 s. The CO2 concentrations ranged from 1.7 to 17 mM for the determination of the kinetic parameters and inhibition constants. […] The uncatalysed rates were determined in the same manner and subtracted from the total observed rates. Stock solutions of inhibitor (0.1 mM) were prepared in distilled–deionised water and dilutions up to 0.01 nM were done thereafter with the assay buffer. Inhibitor and enzyme solutions were pre-incubated together for 15 min at room temperature prior to assay, in order to allow for the formation of the E–I complex. The inhibition constants were obtained by non-linear least-square methods using PRISM (www.graphpad.com), and non-linear least squares methods, values representing the mean of at least three different determinations, as described earlier by us[22–27].

[2] = biological target: hCA XII (Homo sapiens, UniProt O43570); experiment: stopped flow CO2 hydrase assay, hCA XII; format: biochemical; settings: mean from three different assays
Method: as §1

[3] = DPPH radical scavenging activity
Method: Antioxidant activity was determined based on the ability of the antioxidants to act as radical scavengers towards the stable free radical, 1,1-diphenyl-2-picrylhydrazyl (DPPH). As detailed by Yang et al[28], 1 ml of antioxidant solution (solubilised in ethanol) was added to 3 ml of a 0.1 mM ethanolic solution of DPPH. After 30 min at ambient temperature in darkness, absorbance readings were taken at 517 nm. Inhibition (%) was calculated using the equation [1 – (As−Ao)/Ab]×100 where As was the absorbance reading for samples containing antioxidant, Ao was the absorbance of the antioxidant in pure methanol and Ab corresponded to the absorbance of the DPPH solution.
The antioxidant activity of the compounds was determined based on the ability of the antioxidants to act as radical scavengers towards the stable free radical, 1,1-diphenyl-2-picrylhydrazyl (DPPH)[28].

[4] = biological target: hCA II (Homo sapiens, UniProt P00918); experiment: stopped flow CO2 hydrase assay, hCA II; format: biochemical; settings: mean from three different assays, read-out: Ki hCAII
Method: as §1

[5] = biological target: hCA IX (Homo sapiens, UniProt Q16790); experiment: stopped flow CO2 hydrase assay, hCA IX; format: biochemical; settings: mean from three different assays
Method: as §1

Sequence of hCA XII (O43570 25-354): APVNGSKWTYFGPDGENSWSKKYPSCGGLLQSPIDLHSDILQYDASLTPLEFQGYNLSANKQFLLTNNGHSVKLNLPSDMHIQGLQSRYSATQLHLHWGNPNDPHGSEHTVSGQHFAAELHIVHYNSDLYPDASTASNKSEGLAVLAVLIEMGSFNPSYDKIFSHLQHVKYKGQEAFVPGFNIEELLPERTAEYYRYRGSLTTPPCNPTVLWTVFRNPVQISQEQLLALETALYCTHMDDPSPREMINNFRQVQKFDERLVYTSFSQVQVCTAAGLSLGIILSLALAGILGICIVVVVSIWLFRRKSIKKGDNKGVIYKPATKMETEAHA
Sequence of hCA I (P00915 whole entry): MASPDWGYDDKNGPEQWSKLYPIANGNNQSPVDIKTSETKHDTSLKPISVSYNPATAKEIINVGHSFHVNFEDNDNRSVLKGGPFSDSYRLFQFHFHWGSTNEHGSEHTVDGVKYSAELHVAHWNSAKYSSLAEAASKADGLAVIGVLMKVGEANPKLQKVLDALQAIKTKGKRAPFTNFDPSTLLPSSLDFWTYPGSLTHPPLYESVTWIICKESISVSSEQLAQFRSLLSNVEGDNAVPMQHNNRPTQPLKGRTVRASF

Molecule | Ki [1] | Ki [2] | Antioxidant activity, % ([3]; 12.5 μg/ml) | Antioxidant activity, % ([3]; 25 μg/ml) | Antioxidant activity, % ([3]; 37.5 μg/ml) | Antioxidant activity, % ([3]; 62.5 μg/ml) | Antioxidant activity, % ([3]; 125 μg/ml) | Ki [4] | melting point | Ki [5]
C[C@@H](NC(=O)OC(C)(C)C)C(=O)Nc1ccc2c(c1)NC(=O)CC2 (stereo in doubt) [Compound 1, Tert-butyl (R)-(1-oxo-1-((2-oxo-1,2,3,4-tetrahydroquinolin-7-yl)amino)propan-2-yl)carbamate] | > 100 µM | 2 µM | 3.8% | 2.2% | 2.5% | 1.6% | 0.6% | > 100 µM | 197 to 198 °C | 86.8 µM
CC(C)(C)OC(=O)N[C@H](Cc1ccccc1)C(=O)Nc1ccc2c(c1)NC(=O)CC2 (stereo in doubt) [Compound 2, Tert-butyl (R)-(1-oxo-1-((2-oxo-1,2,3,4-tetrahydroquinolin-7-yl)amino)-3-phenylpropan-2-yl)carbamate] | > 100 µM | 3.8 µM | 3.1% | 2.2% | 0.0% | 0.9% | 0.6% | > 100 µM | 180 to 181 °C | 41.2 µM
CSCC[C@H](NC(=O)OC(C)(C)C)C(=O)Nc1ccc2c(c1)NC(=O)CC2 (stereo in doubt) [Compound 3, Tert-butyl (S)-(4-(methylthio)-1-oxo-1-((2-oxo-1,2,3,4-tetrahydroquinolin-7-yl)amino)butan-2-yl)carbamate] | > 100 µM | 8.5 µM | 0.9% | 0.3% |  |  |  | > 100 µM | 171 to 172 °C | 42.6 µM
O=C1CCc2ccc(NC(=O)[C@H](CSc3ccccc3)NC(=O)OCc3ccccc3)cc2N1 (stereo in doubt) [Compound 4, Benzyl (R)-(1-oxo-1-((2-oxo-1,2,3,4-tetrahydroquinolin-7-yl)amino)-3-(phenylthio)propan-2-yl)carbamate] | > 100 µM | 5.7 µM | 2.5% | 1.6% | 0.9% | 2.2% | 1.6% | > 100 µM | 150 to 151 °C | 65.4 µM
CSCC[C@H](NC(=O)OCc1ccccc1)C(=O)Nc1ccc2c(c1)NC(=O)CC2 (stereo in doubt) [Compound 5, Benzyl (S)-(4-(methylthio)-1-oxo-1-((2-oxo-1,2,3,4-tetrahydroquinolin-7-yl)amino)butan-2-yl)carbamate] | > 100 µM | 7 µM | 2.8% | 1.9% | 1.9% | 2.8% | 2.8% | > 100 µM | 137 to 138 °C | 37.7 µM
COc1ccc(O)c(C(C)(C)C)c1 [BHA, reference compound] |  |  | 61.1% | 63.0% | 67.5% | 71.0% | 72.4% |  |  | 
Cc1c(C)c2c(c(C)c1O)CC[C@@](C)(CCC[C@H](C)CCC[C@H](C)CCCC(C)C)O2 [α-Toc., α-tocopherol, reference compound] |  |  | 62.9% | 63.4% | 68.4% | 72.8% | 74.0% |  |  | 
Benzyl ((R)-1-oxo-1-(((S)-1-oxo-1-((2-oxo-1,2,3,4-tetrahydroquinolin-6-yl)amino)-3-phenylpropan-2-yl)amino)-3-phenylpropan-2-yl)carbamate [Compound 6] | > 100 µM | 8.6 µM | 1.9% | 6.3% | 8.8% | 16.4% |  | > 100 µM |  | 47.6 µM
